Columns and labels:
[1] = system: K562; assay: Cell cycle arrest in human K562 cells as assessed as accumulation at S phase at 1 uM after 24 hrs by propidium iodide staining-based flow cytometric analysis relative to control; assay type: functional
[2] = system: K562; assay: Cell cycle arrest in human K562 cells as assessed as accumulation at G1 phase at 0.1 uM after 48 hrs by propidium iodide staining-based flow cytometric analysis relative to control; assay type: functional
[3] = system: K562; assay: Cell cycle arrest in human K562 cells as assessed as accumulation at G2/M phase at 0.1 uM after 48 hrs by propidium iodide staining-based flow cytometric analysis relative to control; assay type: functional
[4] = system: K562; assay: Cell cycle arrest in human K562 cells as assessed as accumulation at sub-G1 phase at 1 uM after 48 hrs by propidium iodide staining-based flow cytometric analysis relative to control; assay type: functional
[5] = system: K562; assay: Cell cycle arrest in human K562 cells as assessed as accumulation at G1 phase at 0.5 uM after 24 hrs by propidium iodide staining-based flow cytometric analysis relative to control; assay type: functional
[6] = system: K562; assay: Cell cycle arrest in human K562 cells as assessed as accumulation at G1 phase at 0.5 uM after 48 hrs by propidium iodide staining-based flow cytometric analysis relative to control; assay type: functional
[7] = system: SW-620; assay: Antiproliferative activity against human SW620 cells after 72 hrs by MTT assay; assay type: functional, cell-based
[8] = system: MCR; assay: Antiproliferative activity against human MCR cells after 72 hrs by MTT assay; assay type: cell-based; conditions: human, mcr
[9] = system: K562; assay: Antiproliferative activity against apoptosis-resistant, Philadelphia chromosome-positive human K562 cells after 72 hrs by PrestoBlue colorimetric assay; assay type: functional, cell-based; conditions: K562, 72 h
[10] = system: BJ; assay: Antiproliferative activity against human BJ cells after 72 hrs by PrestoBlue colorimetric assay; assay type: cell-based
[11] = system: SW-620; assay: Cell cycle arrest in human SW620 cells as assessed as accumulation at G2/M phase at 0.1 uM after 24 hrs by propidium iodide staining-based flow cytometric analysis relative to control; assay type: functional
[12] = system: SW-620; assay: Cell cycle arrest in human SW620 cells as assessed as accumulation at G2/M phase at 1 uM after 24 hrs by propidium iodide staining-based flow cytometric analysis relative to control; assay type: functional
[13] = system: SW-620; assay: Cell cycle arrest in human SW620 cells as assessed as accumulation at G1 phase at 0.1 uM after 48 hrs by propidium iodide staining-based flow cytometric analysis relative to control; assay type: functional
[14] = system: SW-620; assay: Cell cycle arrest in human SW620 cells as assessed as accumulation at S phase at 1 uM after 48 hrs by propidium iodide staining-based flow cytometric analysis relative to control; assay type: functional
[15] = system: SW-620; assay: Cell cycle arrest in human SW620 cells as assessed as accumulation at G2/M phase at 1 uM after 48 hrs by propidium iodide staining-based flow cytometric analysis relative to control; assay type: functional
[16] = system: WI-38; assay: Cell cycle arrest in human WI38 cells as assessed as accumulation at sub-G1 phase at 0.1 uM after 24 hrs by propidium iodide staining-based flow cytometric analysis relative to control; conditions: wi-38, 24 h
[17] = system: WI-38; assay: Cell cycle arrest in human WI38 cells as assessed as accumulation at sub-G1 phase at 1 uM after 24 hrs by propidium iodide staining-based flow cytometric analysis relative to control; conditions: wi-38, 24 h
[18] = system: WI-38; assay: Cell cycle arrest in human WI38 cells as assessed as accumulation at G1 phase at 1 uM after 24 hrs by propidium iodide staining-based flow cytometric analysis relative to control; conditions: wi-38, 24 h
[19] = system: WI-38; assay: Cell cycle arrest in human WI38 cells as assessed as accumulation at S phase at 1 uM after 24 hrs by propidium iodide staining-based flow cytometric analysis relative to control; conditions: wi-38, 24 h
[20] = system: WI-38; assay: Cell cycle arrest in human WI38 cells as assessed as accumulation at G2/M phase at 1 uM after 24 hrs by propidium iodide staining-based flow cytometric analysis relative to control; conditions: wi-38, 24 h
[21] = system: WI-38; assay: Cell cycle arrest in human WI38 cells as assessed as accumulation at sub-G1 phase at 0.1 uM after 48 hrs by propidium iodide staining-based flow cytometric analysis relative to control; conditions: wi-38, 48 h
[22] = system: WI-38; assay: Cell cycle arrest in human WI38 cells as assessed as accumulation at S phase at 0.1 uM after 48 hrs by propidium iodide staining-based flow cytometric analysis relative to control; conditions: wi-38, 48 h
[23] = system: WI-38; assay: Cell cycle arrest in human WI38 cells as assessed as accumulation at sub-G1 phase at 1 uM after 48 hrs by propidium iodide staining-based flow cytometric analysis relative to control; conditions: wi-38, 48 h
[24] = system: WI-38; assay: Cell cycle arrest in human WI38 cells as assessed as accumulation at G1 phase at 1 uM after 48 hrs by propidium iodide staining-based flow cytometric analysis relative to control; conditions: wi-38, 48 h
[25] = system: WI-38; assay: Cell cycle arrest in human WI38 cells as assessed as accumulation at S phase at 1 uM after 48 hrs by propidium iodide staining-based flow cytometric analysis relative to control; conditions: wi-38, 48 h
[26] = system: MCF7; assay: Cell cycle arrest in human MCF7 cells as assessed as accumulation at sub-G1 phase at 0.1 uM after 24 hrs by propidium iodide staining-based flow cytometric analysis relative to control; assay type: functional
[27] = system: MCF7; assay: Cell cycle arrest in human MCF7 cells as assessed as accumulation at G1 phase at 0.1 uM after 24 hrs by propidium iodide staining-based flow cytometric analysis relative to control; assay type: functional
[28] = system: MCF7; assay: Cell cycle arrest in human MCF7 cells as assessed as accumulation at S phase at 0.1 uM after 24 hrs by propidium iodide staining-based flow cytometric analysis relative to control; assay type: functional
[29] = system: MCF7; assay: Cell cycle arrest in human MCF7 cells as assessed as accumulation at G2/M phase at 0.1 uM after 24 hrs by propidium iodide staining-based flow cytometric analysis relative to control; assay type: functional
[30] = system: MCF7; assay: Cell cycle arrest in human MCF7 cells as assessed as accumulation at G1 phase at 1 uM after 24 hrs by propidium iodide staining-based flow cytometric analysis relative to control; assay type: functional
[31] = system: MCF7; assay: Cell cycle arrest in human MCF7 cells as assessed as accumulation at sub-G1 phase at 0.1 uM after 48 hrs by propidium iodide staining-based flow cytometric analysis relative to control; assay type: functional
[32] = system: MCF7; assay: Cell cycle arrest in human MCF7 cells as assessed as accumulation at G1 phase at 0.1 uM after 48 hrs by propidium iodide staining-based flow cytometric analysis relative to control; assay type: functional
[33] = system: K562; assay: Cell cycle arrest in human K562 cells as assessed as accumulation at sub-G1 phase at 0.1 uM after 24 hrs by propidium iodide staining-based flow cytometric analysis relative to control; assay type: functional
[34] = system: K562; assay: Cell cycle arrest in human K562 cells as assessed as accumulation at G1 phase at 0.1 uM after 24 hrs by propidium iodide staining-based flow cytometric analysis relative to control; assay type: functional
[35] = system: K562; assay: Cell cycle arrest in human K562 cells as assessed as accumulation at G2/M phase at 0.1 uM after 24 hrs by propidium iodide staining-based flow cytometric analysis relative to control; assay type: functional
[36] = system: K562; assay: Cell cycle arrest in human K562 cells as assessed as accumulation at sub-G1 phase at 1 uM after 24 hrs by propidium iodide staining-based flow cytometric analysis relative to control; assay type: functional
[37] = system: K562; assay: Cell cycle arrest in human K562 cells as assessed as accumulation at G1 phase at 1 uM after 24 hrs by propidium iodide staining-based flow cytometric analysis relative to control; assay type: functional

- IC50 ([7]; SW-620, 72 h): 0.5 µM
- IC50 [9]: 0.6 µM
- Activity [16]: 21.9%
- Activity [17]: 21%
- Activity [18]: 70.1%
- Activity [19]: 2.4%
- Activity [20]: 5.1%
- Activity [21]: 38.5%
- Activity [22]: 6.8%
- Activity [23]: 47.9%
- Activity [24]: 45.5%
- Activity [25]: 3.4%
SMILES: COCn1c(CC(COCc2ccccc2)COCc2ccccc2)c(C)c(=O)n(COC)c1=O
- Activity [1]: 26.6%
- Activity [2]: 49.8%
- Activity [3]: 23.5%
- Activity [4]: 4.2%
- Activity [5]: 85.8%
- Activity [6]: 64.4%
- Activity [7]: Dose-dependent effect
- Activity [8]: Dose-dependent effect
- IC50 [10]: 5.3 µM
- Activity [11]: 21.7%
- Activity [12]: 20.1%
- Activity [13]: 49.7%
- Activity [14]: 22%
- Activity [15]: 15.8%
- Activity [26]: 55.5%
- Activity [27]: 25.5%
- Activity [28]: 9.7%
- Activity [29]: 7.1%
- Activity [30]: 14.8%
- Activity [31]: 50.5%
- Activity [32]: 23.8%
- Activity [33]: 2.2%
- Activity [34]: 48.4%
- Activity [35]: 22.2%
- Activity [36]: 3.1%
- Activity [37]: 53%

Source: ChEMBL document CHEMBL3286303, “Synthesis and in vitro antiproliferative evaluation of novel N-alkylated 6-isobutyl- and propyl pyrimidine derivatives” (Bioorg Med Chem Lett, 2014)
